Results published in patent US20040235070A1, “Immune reactivity to expressed activated oncogenes for diagnosis and treatment of malignancy” (Washington Research Foundation, priority 1990, published 2004).

How the values were obtained:
[1] = test system: lymph node and splenic lymphocytes from immunized mice; assay: Proliferation of lymph node and spleen lymphocytes from mice immunized with bcr3-abl2 peptide; assay type: cell-based; conditions: BALB/c mice immunized with bcr3-abl2 12 mer peptide
Experimental: Ten days following immunization with peptide, draining lymph node cells (Panel A) and spleen cells (Panel B) were cultured alone or with bcr3-abl2 12 mer peptide, or bcr2-abl2 12 mer peptide, or ras-c12 12 mer peptide at 25 μg/ml, and assayed after 96 hours for proliferation by [^3H] thymidine uptake. The data represent the mean of triplicate determinations of the c.p.m.+S.D.
Mice (female BALB/c and C57BL/6 (B6), 6 to 8 weeks old; Jackson Laboratories, Bar Harbor, Me.) were inoculated twice at 2-week intervals by subcutaneous injection with Complete Freund's Adjuvant (Sigma Chemical Co., St. Louis, Mo.) alone or emulsified with bcr3-abl2 peptide (100 μg). Ten days after the final immunization, single cell suspensions of draining lymph nodes and spleens were prepared in medium consisting of 1:1 mixture of RPMI 1640 (Gibco Laboratories, Inc., Grand Island, N.Y.) and EHAA (Biofluids, Inc., Rockville, Md.) with 2.5×10^−5 M 2-ME, 200 U/ml penicillin, 200 U/ml streptomycin, 10 mM L-glutamine and 10% fetal calf serum. For proliferative assays, lymphocytes were cultured in 96-well plates at 2×10^5 cells per well with 4×10^5 irradiated syngeneic spleen cells (3,000 rad) and designated (total volume of 200 μl per well). Plates were incubated in a humidified atmosphere under 5% CO2 tension at 37° C. for 72 hours, and then pulsed for 18 hours with […] of [^3H]-thumidine per well. […]

[2] = test system: bcr3-abl2 peptide-specific CD4^+ T cell clones; assay: Proliferative assay of bcr3-abl2 peptide-specific CD4+ T cell clones ([3H] thymidine incorporation); assay type: cell-based, BALB/c mice; conditions: for [^3H] Thymidine Incorporation (c.p.m.) after Stimulation / [^3H] Thymidine Incorporation (c.p.m.): 96-hour culture; for [^3H] Thymidine Incorporation (c.p.m.): Table 2; for [^3H] Thymidine Incorporation (c.p.m.) after Stimulation with bcr3-abl2 peptide (5 μg/ml): peptides of varying lengths 5 μg/ml, 96 hour culture, Table 4
Experimental: Mice (female BALB/c and C57BL/6 (B6), 6 to 8 weeks old; Jackson Laboratories, Bar Harbor, Me.) were inoculated twice at 2-week intervals by subcutaneous injection with Complete Freund's Adjuvant (Sigma Chemical Co., St. Louis, Mo.) alone or emulsified with bcr3-abl2 peptide (100 μg). Ten days after the final immunization, single cell suspensions of draining lymph nodes and spleens were prepared in medium consisting of 1:1 mixture of RPMI 1640 (Gibco Laboratories, Inc., Grand Island, N.Y.) and EHAA (Biofluids, Inc., Rockville, Md.) with 2.5×10^−5 M 2-ME, 200 U/ml penicillin, 200 U/ml streptomycin, 10 mM L-glutamine and 10% fetal calf serum. For proliferative assays, lymphocytes were cultured in 96-well plates at 2×10^5 cells per well with 4×10^5 irradiated syngeneic spleen cells (3,000 rad) and designated (total volume of 200 μl per well). Plates were incubated in a humidified atmosphere under 5% CO2 tension at 37° C. for 72 hours, and then pulsed for 18 hours with […] of [^3H]-thumidine per well. Proliferative responses of cloned T cells utilized 2×10^4 cells per well with 5×10^5 irradiated syngeneic spleen cells (3,000 rad) and designated peptide.
Lymphocytes from the draining lymph nodes of mice immunized with bcr3-abl2 peptide were cultured in 24-well culture plates at 4×10^6 cells per well with 2×10^6 irradiated syngeneic spleen cells and bcr3-abl2 peptide at 25 μg/ml (total volume 2 ml). The plates were cultured in a humidified atmosphere under 5% CO2 tension at 37° C. for 5 days then split 1:2. After 10 days, lymphocytes were restimulated at 1×10^6 lymphocytes per well in 24-well culture plates with 5×10^6 irradiated syngeneic spleen cells and peptide (25 μg/ml). Two days after the second in vitro stimulation, T cells were-plated at 0.5 cells per well in 96-well flat-bottom plates with 1×10^6 irradiated syngeneic spleen cells and rIL-2 (50 U/ml). Derived T cell clones were maintained by periodic stimulation with peptide (1 μg/ml) plus irradiated syngeneic spleen cells followed by expansion with rIL-2 (10 U/ml) every 2 weeks. T cell clones were stained with FITC-conjugated anti-Thy 1.2 (1%), or FITC-conjugated anti-Lyt2 (2%), or PE-conjugated anti-L3T4 (3%) mAbs (Becton Dickinson Immunocytochemistry Systems, Mountain View, Calif.) at 4° C. for 45 minutes.

G F K Q S S K A L Q R P (GFKQSSKALQRP) [bcr3-abl2 12 mer peptide, 12 amino acid peptide identical to the joining region of p210 bcr-abl (bcr exon 3 fused to c-abl exon 2)]
proliferation in vitro of lymph node and splenic lymphocytes [1]: proliferated in vitro
[^3H] Thymidine Incorporation (c.p.m.) after Stimulation ([2]; T cell clone 1D2, peptide 0.04 μg/ml): 16,423 c.p.m.
[^3H] Thymidine Incorporation (c.p.m.) after Stimulation ([2]; T cell clone 1D2, peptide 0.2 μg/ml): 91,251 c.p.m.
[^3H] Thymidine Incorporation (c.p.m.) after Stimulation ([2]; T cell clone 1D2, peptide 1 μg/ml): 183,229 c.p.m.
[^3H] Thymidine Incorporation (c.p.m.) ([2]; T cell clone 1D2, peptide 5 μg/ml): 274,701 c.p.m.
[^3H] Thymidine Incorporation (c.p.m.) after Stimulation ([2]; T cell clone 1D2, peptide 5 μg/ml, Table 3): 259,018 c.p.m.
[^3H] Thymidine Incorporation (c.p.m.) after Stimulation ([2]; T cell clone 1D2, peptide 25 μg/ml): 66,329 c.p.m.
[^3H] Thymidine Incorporation (c.p.m.) after Stimulation with bcr3-abl2 peptide (5 μg/ml) ([2]; T cell clone 1D2): 120,049 c.p.m.
[^3H] Thymidine Incorporation (c.p.m.) after Stimulation ([2]; T cell clone 2B12, peptide 0.04 μg/ml): 4,132 c.p.m.
[^3H] Thymidine Incorporation (c.p.m.) after Stimulation ([2]; T cell clone 2B12, peptide 0.2 μg/ml): 71,651 c.p.m.
[^3H] Thymidine Incorporation (c.p.m.) after Stimulation ([2]; T cell clone 2B12, peptide 1 μg/ml): 213,089 c.p.m.
[^3H] Thymidine Incorporation (c.p.m.) ([2]; T cell clone 2B12, peptide 5 μg/ml): 109,319 c.p.m.
[^3H] Thymidine Incorporation (c.p.m.) after Stimulation ([2]; T cell clone 2B12, peptide 5 μg/ml, Table 3): 229,010 c.p.m.
[^3H] Thymidine Incorporation (c.p.m.) after Stimulation ([2]; T cell clone 2B12, peptide 25 μg/ml): 132,620 c.p.m.
[^3H] Thymidine Incorporation (c.p.m.) after Stimulation ([2]; T cell clone 2D4, peptide 0.04 μg/ml): 12,599 c.p.m.
[^3H] Thymidine Incorporation (c.p.m.) after Stimulation ([2]; T cell clone 2D4, peptide 0.2 μg/ml): 150,711 c.p.m.
[^3H] Thymidine Incorporation (c.p.m.) after Stimulation ([2]; T cell clone 2D4, peptide 1 μg/ml): 256,606 c.p.m.
[^3H] Thymidine Incorporation (c.p.m.) ([2]; T cell clone 2D4, peptide 5 μg/ml): 262,799 c.p.m.
[^3H] Thymidine Incorporation (c.p.m.) after Stimulation ([2]; T cell clone 2D4, peptide 5 μg/ml, Table 3): 182,266 c.p.m.
[^3H] Thymidine Incorporation (c.p.m.) after Stimulation ([2]; T cell clone 2D4, peptide 25 μg/ml): 42,623 c.p.m.
[^3H] Thymidine Incorporation (c.p.m.) after Stimulation ([2]; T cell clone 2E3, peptide 0.04 μg/ml): 1,475 c.p.m.
[^3H] Thymidine Incorporation (c.p.m.) after Stimulation ([2]; T cell clone 2E3, peptide 0.2 μg/ml): 93,921 c.p.m.
[^3H] Thymidine Incorporation (c.p.m.) after Stimulation ([2]; T cell clone 2E3, peptide 1 μg/ml): 273,273 c.p.m.
[^3H] Thymidine Incorporation (c.p.m.) ([2]; T cell clone 2E3, peptide 5 μg/ml): 293,219 c.p.m.
[^3H] Thymidine Incorporation (c.p.m.) after Stimulation ([2]; T cell clone 2E3, peptide 5 μg/ml, Table 3): 407,729 c.p.m.
[^3H] Thymidine Incorporation (c.p.m.) after Stimulation ([2]; T cell clone 2E3, peptide 25 μg/ml): 358,253 c.p.m.
[^3H] Thymidine Incorporation (c.p.m.) after Stimulation ([2]; T cell clone 2E10, peptide 0.04 μg/ml): 26,195 c.p.m.
[^3H] Thymidine Incorporation (c.p.m.) after Stimulation ([2]; T cell clone 2E10, peptide 0.2 μg/ml): 235,103 c.p.m.
[^3H] Thymidine Incorporation (c.p.m.) after Stimulation ([2]; T cell clone 2E10, peptide 1 μg/ml): 333,056 c.p.m.
[^3H] Thymidine Incorporation (c.p.m.) ([2]; T cell clone 2E10, peptide 5 μg/ml): 242,633 c.p.m.
[^3H] Thymidine Incorporation (c.p.m.) after Stimulation ([2]; T cell clone 2E10, peptide 5 μg/ml, Table 3): 312,783 c.p.m.
[^3H] Thymidine Incorporation (c.p.m.) after Stimulation ([2]; T cell clone 2E10, peptide 25 μg/ml): 131,643 c.p.m.
[^3H] Thymidine Incorporation (c.p.m.) after Stimulation with bcr3-abl2 peptide (5 μg/ml) ([2]; T cell clone 2E10): 96,525 c.p.m.
[^3H] Thymidine Incorporation (c.p.m.) after Stimulation ([2]; T cell clone 3B7, peptide 0.04 μg/ml): 60,957 c.p.m.
[^3H] Thymidine Incorporation (c.p.m.) after Stimulation ([2]; T cell clone 3B7, peptide 0.2 μg/ml): 56,967 c.p.m.
[^3H] Thymidine Incorporation (c.p.m.) after Stimulation ([2]; T cell clone 3B7, peptide 1 μg/ml): 111,212 c.p.m.
[^3H] Thymidine Incorporation (c.p.m.) ([2]; T cell clone 3B7, peptide 5 μg/ml): 64,935 c.p.m.
[^3H] Thymidine Incorporation (c.p.m.) after Stimulation ([2]; T cell clone 3B7, peptide 5 μg/ml, Table 3): 149,640 c.p.m.
[^3H] Thymidine Incorporation (c.p.m.) after Stimulation ([2]; T cell clone 3B7, peptide 25 μg/ml): 53,441 c.p.m.
[^3H] Thymidine Incorporation (c.p.m.) after Stimulation ([2]; T cell clone 3E11, peptide 0.04 μg/ml): 91,240 c.p.m.
[^3H] Thymidine Incorporation (c.p.m.) after Stimulation ([2]; T cell clone 3E11, peptide 0.2 μg/ml): 135,985 c.p.m.
[^3H] Thymidine Incorporation (c.p.m.) after Stimulation ([2]; T cell clone 3E11, peptide 1 μg/ml): 189,843 c.p.m.
[^3H] Thymidine Incorporation (c.p.m.) ([2]; T cell clone 3E11, peptide 5 μg/ml): 263,425 c.p.m.
[^3H] Thymidine Incorporation (c.p.m.) after Stimulation ([2]; T cell clone 3E11, peptide 5 μg/ml, Table 3): 130,633 c.p.m.
[^3H] Thymidine Incorporation (c.p.m.) after Stimulation ([2]; T cell clone 3E11, peptide 25 μg/ml): 40,755 c.p.m.
[^3H] Thymidine Incorporation (c.p.m.) after Stimulation ([2]; T cell clone 3G2, peptide 0.04 μg/ml): 9,440 c.p.m.
[^3H] Thymidine Incorporation (c.p.m.) after Stimulation ([2]; T cell clone 3G2, peptide 0.2 μg/ml): 49,602 c.p.m.
[^3H] Thymidine Incorporation (c.p.m.) after Stimulation ([2]; T cell clone 3G2, peptide 1 μg/ml): 150,799 c.p.m.
[^3H] Thymidine Incorporation (c.p.m.) ([2]; T cell clone 3G2, peptide 5 μg/ml): 30,846 c.p.m.
[^3H] Thymidine Incorporation (c.p.m.) after Stimulation ([2]; T cell clone 3G2, peptide 5 μg/ml, Table 3): 168,387 c.p.m.
[^3H] Thymidine Incorporation (c.p.m.) after Stimulation ([2]; T cell clone 3G2, peptide 25 μg/ml): 132,024 c.p.m.
[^3H] Thymidine Incorporation (c.p.m.) after Stimulation ([2]; T cell clone 3G3, peptide 0.04 μg/ml): 11,510 c.p.m.
[^3H] Thymidine Incorporation (c.p.m.) after Stimulation ([2]; T cell clone 3G3, peptide 0.2 μg/ml): 18,403 c.p.m.
[^3H] Thymidine Incorporation (c.p.m.) after Stimulation ([2]; T cell clone 3G3, peptide 1 μg/ml): 93,219 c.p.m.
[^3H] Thymidine Incorporation (c.p.m.) ([2]; T cell clone 3G3, peptide 5 μg/ml): 61,521 c.p.m.
[^3H] Thymidine Incorporation (c.p.m.) after Stimulation ([2]; T cell clone 3G3, peptide 5 μg/ml, Table 3): 143,670 c.p.m.
[^3H] Thymidine Incorporation (c.p.m.) after Stimulation ([2]; T cell clone 3G3, peptide 25 μg/ml): 101,280 c.p.m.
response of bcr3-abl2 peptide-specific T cell clones (in words) ([2]; proliferative assay with irradiated syngeneic APC): responded specifically
lowest concentration to which clones responded vigorously ([2]; some clones, lowest concentration tested): 0.04 µg/mL
